Measurements from patent US20030165486A1, “Compositions and methods for the induction of retinal detachments” (priority 1999, published 2003).
Like-named read-outs stand apart in the source and are kept apart here.

What was measured:
eyes of rabbits = test system: eyes of rabbits
Method: Fifty-two (52) healthy rabbits of the New Zealand Cross variety (26 male, 26 female) weighing 1.5 kg to 2.5 kg were individually marked for identification and were housed individually in suspended cages. The animals received a commercially available pelleted rabbit feed on a daily basis, with tap water available ad libitum.
Two animals in each group (1 male, 1 female) were selected for pretreatment fundus photography and fluorescein angiography.
The fundus photography was performed by restraining the animals and visualizing the optic nerve, retinal arcades and fundus with a KOWA® RC-3 Fundus Camera loaded with Kodak Gold 200 ASA film.
The fluorescein angiography involved a 1.5-ml injection of 2% sterile fluorescein solution via the marginal ear vein. Approximately 30 seconds post-injection the fluorescein was visualized upon localization of the optic nerve, retinal vessels and fundus.
The following day, each animal was anesthetized by intravenous administration of a combination of 34 mg/kg of ketamine hydrochloride and 5-mg/kg xylazine. The eyelids were retracted using a lid speculum, and the eyes were disinfected with an iodine-povidone wash.
The experimental treatments administered to each animal group were as follows:
The day following the injections (Day 1) the 26 animals, which were subjected to the fundus photography and fluorescein angiography, were observed using the same methods as for the pre-dose examination.
Alternatively, one randomly selected rabbit was euthanized by pentobarbital injection but then fixed by intracardiac injection of the gluteraldehyde solution into the left ventricle to determine the effect of the fixation procedure on the histology findings within the enucleated eyes.
On Day 7, the 13 female rabbits that had been previously photographed and angiography performed were subjected to same observations following the methods previously described.
The remaining 26 animals were euthanized as described above 7 days after dosing. The eyes were fixed in the same manner as those, which had been fixed on day 2. […]

retina of rabbit eyes [1] = test: Induction of reversible retinal detachment in rabbits using varying concentration of PEG 300 (Example 5); type: in vivo
Method: In this study, 8-pigmented rabbits were divided into 4 groups of 2 animals each. Group I consisted of 2 animals treated with 100% PEG 300. As performed in Example 1, these animals were first injected intravitreally (OD) with 50 μl of 75 I.U. of Hyaluronidase solution (Group I). Fourteen days after the first injection these animals received 50 μl of 100% sterile PEG 300 intravitreally. The OS eye was used as the untreated control as described in Example 1 (Group Ia). A second group of two animals, Group II, was first injected intravitreally (OD) with 50 μl of 75 I.U. of Hyaluronidase solution and then injected 14 days later with 50 μl of sterile 75% solution of PEG 300 intravitreally. The OS eyes of these animals were used as the untreated controls (Group IIa). […] were treated according to the same protocols as described for Groups I, Ia, II, and IIa with the exception that Group III received 50 μl of 50% sterile solution of PEG 300 intravitreally. Similarly, Groups IV and IVa were treated according to the same protocols as described above, however, Group IV received 50 μl of 25% sterile solution of PEG 300 intravitreally.
All retinal detachments and retinal re-attachments were documented using Fundus Photography and Ultrasonography (β-Scan). In addition, 3 rabbit eyes were enucleated and the eyes were prepared for light microscopy as well as for Electron Microscopy.

retina of rabbit eyes [2] = type: in vivo; conditions: for Electro Retinography Results / Histological and Electron Microscopic Results / Retinal Detachment at 48 hours Post 2nd Injection / Retinal Reattachment at 3 weeks Post 2nd Injection: 50 μl of 75 I.U. hyaluronidase intravitreally, 3 days later 50 μl sterile PEG, n = 6; for Retinal Detachment at 48 hours Post 2nd Injection / Retinal Reattachment at 3 weeks Post 2nd Injection: fundus photos, β scans; for safety by indirect ophthalmoscopy, fundus photography, light and electron microscopy and electroretinography: intravitreal hyaluronidase followed by intravitreal PEG
Method: In this study, 12-pigmented rabbits were divided into 2 groups of 6 animals each. Group I consisted of six animals that were injected OD with PEG 300. […] As a control, these same animals received saline injections OS and thus served as a control group (Group Ia).
Group II consisted of six animals that were injected that were injected OD with PEG 400. […] As a control, these same animals received saline injections OS and thus served as a control group (Group IIa).
During this procedure a number of ophthalmic methodologies were utilized to monitor the effects and progress of the various experimental treatments. For example, indirect ophthalmoscopy was utilized by a retinal specialist to determine the effects of administering a retinal detaching dose of the compounds disclosed. […] Light microscopy and electron microscopy of eye samples was used to determine the effect of the treatments from a histological perspective. Ultrasonography techniques were used to objectively determine the presence of retinal detachment. Additionally, electroretinography was performed to determine changes due to treatment.

detached retinas of cats = test: Protection of surgically detached retina from degeneration in adult cats (Example 6); type: in vivo, adult cats (Felis domesticus); conditions: 100 μl of Table 5 formulation 6 hours after detachment, 3 days
Method: The study is performed on 15 adult cats (Felis domesticus) and modeled generally on the study of Mervin, et al., “Limiting Photoreceptor Death and Deconstruction During Experimental Retinal Detachment: The Value of Oxygen Supplementation,” Am. J. Ophthal. 128:155-164 (1999). Unlike the Mervin study however, the present experiment examines the effect of hyaluronidase administration to prevent photoreceptor death rather than the effect of supplemental oxygen administration.
Three groups of five adult domestic cats (Experimental Group I, Experimental Group II, and Control Group I) are anesthetized using 10 mg/kg of xylazine (Boehringer Ingelheim Vetmedica, Inc., St. Joseph, Mo.) and 50 mg/kg of ketamine (Sigma, St. Louis, Mo.). The surgical method of Anderson, et al., (Invest. Ophthalmol. Vis. Sci. 27:168-183 (1986)) is used to induce retinal detachment in two experimental groups of 5 cats each, however, the lens and vitreous of these cats are left in place during the surgical procedure.
During the procedure, a glass micropipette is introduced through a 20-gauge hole in the sclera at the region of the pars plana. A balanced salt solution (BSS) containing 0.25% sodium hyaluronate is then infused between the neural retina and retinal pigment epithelium. A single detachment is produced in the right eye of each of the 10 cats.
The experimental groups are allowed to recover for six hours. […]

[3] = 75 I.U. hyaluronidase, 14 days later varying concentrations of PEG 300
[4] = Groups I-IV OD: 75 I.U. hyaluronidase, 14 days later 50 μl sterile 100%, 75%, 50% or 25% PEG 300, fundus photos, β scans

| Compound | treatment-related toxicities, eyes examined grossly and microscopically (eyes of rabbits; Group 2, BSS+thimerosal 0.0075 mg, day 2) | treatment-related toxicities, eyes examined grossly and microscopically (eyes of rabbits; Group 2, BSS+thimerosal 0.0075 mg, day 7) | treatment-related toxicities, eyes examined grossly and microscopically (eyes of rabbits; Group 3, BSS+thimerosal 0.025 mg, day 2 and 7 post dose) | time to induced retinal detachment after second intravitreal injection (retina of rabbit eyes [1]; [3]) | time to spontaneous retinal re-attachment after the PEG injection (retina of rabbit eyes [1]; [3]) | Retinal Detachment At 48 hours Post 2nd Injection (retina of rabbit eyes [1]; [4]) | Retinal Reattachment At 3 weeks Post 2nd Injection (retina of rabbit eyes [1]; [4]) | Histological and Electron Microscopic Results (retina of rabbit eyes [1]; Groups I-IV OD: 100%, 75%, 50% or 25% PEG 300, 3 enucleated eyes) | Electro Retinography Results (retina of rabbit eyes [1]; Groups I-IV OD: 100%, 75%, 50% or 25% PEG 300, after retinal detachment and spontaneous re-attachment 3 weeks later) | safety / toxicity of intravitreal injection (retina of rabbit eyes [1]; hyaluronidase followed by PEG 300 at 100%, 75%, 50% and 25% in saline vehicle) | Electro Retinography Results (retina of rabbit eyes [2]) | Histological and Electron Microscopic Results (retina of rabbit eyes [2]) | Retinal Detachment at 48 hours Post 2nd Injection (retina of rabbit eyes [2]) | Retinal Reattachment at 3 weeks Post 2nd Injection (retina of rabbit eyes [2]) | safety by indirect ophthalmoscopy, fundus photography, light and electron microscopy and electroretinography (retina of rabbit eyes [2]) | thickness of the outer nuclear layer after retinal detachment surgery (detached retinas of cats) |
| --- | --- | --- | --- | --- | --- | --- | --- | --- | --- | --- | --- | --- | --- | --- | --- | --- |
| C[CH2][Hg][S]c1ccccc1C(=O)[O-].[Na+] [thimerosal] | free of toxicity | breakdown of the blood retinal barrier | severe treatment-related toxic effects |  |  |  |  |  |  |  |  |  |  |  |  |  |
| Polyethylene Glycol 300 [PEG 300] |  |  |  | ≤ 48 h | ≤ 3 weeks | All | All | No Adverse | No Adverse | safe and without causing any toxicity | Normal | Normal | All | All | safe and without causing any toxicity | Thinning of the outer nuclear layer is observed |
| Polyethylene Glycol 400 [PEG 400] |  |  |  |  |  |  |  |  |  |  | Normal | Normal | All | All | safe and without causing any toxicity |  |
